# Patent US9981945B2, “Pyrimidine derivatives as CFTR modulators” (NuBridge BioSciences, priority 2015, dated 2018)
# Biological target: T1, ΔF508 mutant CFTR (Homo sapiens, UniProt P13569, DEL508-508)
# T1 construct: expressed in transfected cells; host or cells: Fischer rat thyroid (FRT) cells
# Assay: Fluorescence (YFP halide quenching) assay of ΔF508 mutant CFTR activity in FRT cells
# Type: cell-based
# Set-up: key: fold of mean activity with forskolin alone (I− quenching rate)
# Details: FRT cells expressing ΔF508-CFTR and YFP-H148Q/I152L, rescued at 27° C. 20-24 h; forskolin 20 μM + test compound 20 μM for 20 min; I− influx rate normalized to forskolin alone
# Source text: The ΔF508 mutant CFTR activities of the CFTR modulators are detected using the Fluorescence Assay developed by Pedemonte (Pedemonte N., et al., Antihypertensive 1,4-dihydropyridines as correctors of the cystic fibrosis transmembrane conductance regulator channel gating defect caused by cystic fibrosis mutations, Mol. Pharmacol., 2005, 68, 1736-1746).
# Fischer rat thyroid (FRT) cells, stably transfected with ΔF508 were retransfected with the YFP-H148Q/I152L fluorescent protein. The cells were plated (100,000 cells/well) on black 96-well microplates with clear plastic bottom (Corning Life Sciences, Acton, Mass.).
# The 96-well microplates containing FRT cells expressing F508-CFTR and the halide-sensitive YFP were incubated at 27° C. for 20 to 24 h to allow rescue of the mutant protein to the plasma membrane. After incubation, cells were washed with PBS (containing 137 mM NaCl, 2.7 mM KCl, 8.1 mM Na2HPO4, 1.5 mM KH2PO4, 1 mM CaCl2, and 0.5 mM MgCl2) and stimulated for 20 min with forskolin (20 μM) and test compounds (20 μM) in a final volume of 60 μl. Microplates were then transferred to a microplate reader for CFTR activity determination. Each assay consisted of a continuous 14-s fluorescence reading (5 points per second) with 2 s before and 12 s after injection of 165 μl of an iodide-containing solution (PBS with Cl^− replaced by I^−). Final iodide concentration in the wells was 100 mM. […] To determine I^− influx rate, the final 11 s of the data for each well were fitted with an exponential function to extrapolate initial slope. CFTR activity was determined by measuring the rate of fluorescence quenching induced by extracellular addition of I^−. Data are normalized to the mean activity measured in the presence of forskolin alone.
# T1 sequence (P13569 with tags, fused parts or gaps DEL508-508): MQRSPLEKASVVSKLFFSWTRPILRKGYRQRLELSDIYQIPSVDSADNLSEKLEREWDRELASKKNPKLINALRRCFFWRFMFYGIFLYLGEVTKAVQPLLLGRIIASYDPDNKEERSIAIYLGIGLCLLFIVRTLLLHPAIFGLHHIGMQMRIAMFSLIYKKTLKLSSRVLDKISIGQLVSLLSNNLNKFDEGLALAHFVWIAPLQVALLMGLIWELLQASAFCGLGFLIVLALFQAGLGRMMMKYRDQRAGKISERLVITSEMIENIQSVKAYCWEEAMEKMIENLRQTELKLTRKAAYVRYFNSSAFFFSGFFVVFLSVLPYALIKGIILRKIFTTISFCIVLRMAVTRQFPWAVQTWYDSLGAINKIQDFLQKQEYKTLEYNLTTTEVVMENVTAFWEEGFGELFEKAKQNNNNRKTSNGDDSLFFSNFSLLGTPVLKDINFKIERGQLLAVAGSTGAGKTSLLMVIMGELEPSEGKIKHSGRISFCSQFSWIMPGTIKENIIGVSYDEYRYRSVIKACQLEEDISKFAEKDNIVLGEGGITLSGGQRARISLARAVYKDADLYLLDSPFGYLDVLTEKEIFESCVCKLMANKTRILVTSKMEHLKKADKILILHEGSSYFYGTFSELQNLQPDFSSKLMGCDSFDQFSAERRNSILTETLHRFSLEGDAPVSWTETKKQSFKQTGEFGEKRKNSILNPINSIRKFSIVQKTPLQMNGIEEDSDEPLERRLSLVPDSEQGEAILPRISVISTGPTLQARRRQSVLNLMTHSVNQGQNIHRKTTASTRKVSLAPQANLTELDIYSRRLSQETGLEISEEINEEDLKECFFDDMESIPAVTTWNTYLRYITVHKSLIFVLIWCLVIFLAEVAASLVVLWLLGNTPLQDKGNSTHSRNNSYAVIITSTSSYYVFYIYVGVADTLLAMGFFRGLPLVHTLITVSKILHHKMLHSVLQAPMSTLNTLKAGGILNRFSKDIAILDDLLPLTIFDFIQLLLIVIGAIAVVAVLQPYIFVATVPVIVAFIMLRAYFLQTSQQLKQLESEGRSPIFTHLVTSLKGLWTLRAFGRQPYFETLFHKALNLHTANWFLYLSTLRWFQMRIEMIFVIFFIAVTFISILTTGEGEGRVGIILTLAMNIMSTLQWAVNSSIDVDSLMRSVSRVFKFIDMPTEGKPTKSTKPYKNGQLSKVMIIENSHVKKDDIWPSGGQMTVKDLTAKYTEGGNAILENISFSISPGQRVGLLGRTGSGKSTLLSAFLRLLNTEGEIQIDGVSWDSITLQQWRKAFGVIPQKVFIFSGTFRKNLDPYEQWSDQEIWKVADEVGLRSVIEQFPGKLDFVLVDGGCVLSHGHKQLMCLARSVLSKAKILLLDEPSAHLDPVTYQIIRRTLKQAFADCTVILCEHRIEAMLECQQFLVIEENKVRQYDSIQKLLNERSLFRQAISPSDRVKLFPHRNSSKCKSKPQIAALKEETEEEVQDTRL
row,SMILES,CFTR Activity
1,"Cl.Nc1cc(C(F)(F)F)c(-c2c(F)cccc2F)nc1C(=O)Nc1cncnc1OC1CCNCC1 [Example 51, 3-amino-6-(2,6-difluorophenyl)-N-(4-(piperidin-4-yloxy)pyrimidin-5-yl)-5-(trifluoromethyl)picolinamide hydrochloride]",4.0
2,"Cl.Nc1cc(F)c(-c2c(F)cccc2F)nc1C(=O)Nc1cncnc1OC1CCNC1 (stereo not drawn) [Example 24, 3-amino-6-(2,6-difluorophenyl)-5-fluoro-N-(4-(pyrrolidin-3-yloxy)pyrimidin-5-yl)picolinamide hydrochloride]",1.9
3,"Cl.NCC(CO)COc1ncncc1NC(=O)c1nc(-c2c(F)cccc2F)c(F)cc1N (stereo not drawn) [Example 57, 3-amino-N-(4-(3-amino-2-(hydroxymethyl)propoxy)pyrimidin-5-yl)-6-(2,6-difluorophenyl)-5-fluoropicolinamide hydrochloride]",2.1
